Measured values from patent US12403147B2, “Treatment of ocular inflammation following ocular surgery” (Oculis Operations Sàrl, priority 2019, dated 2025).
Values after ≈ are worked out from the molar mass of the structure shown.

Tests used:
[1] = 25° C.; cited from earlier work
[2] = Experimental: For facilitating the interpretation of obtained results, the stress conditions of described studies should be converted to the condition of the currently running long term stability program for an eye drop formulation. For this purpose, the values of pH drop for stock formulations stored in glass containers from the study were compared with pH drop profile for a clinical batch stored at 25° C. in LDPE plastic containers without antioxidant (STS).

Row | storage time during which the antioxidant can stabilize the formulation [2] | Molecule | solubility in pure water [1]
1 |  | OC[C@H]1O[C@@H]2O[C@H]3[C@H](O)[C@@H](O)[C@@H](O[C@H]4[C@H](O)[C@@H](O)[C@@H](O[C@H]5[C@H](O)[C@@H](O)[C@@H](O[C@H]6[C@H](O)[C@@H](O)[C@@H](O[C@H]7[C@H](O)[C@@H](O)[C@@H](O[C@H]1[C@H](O)[C@H]2O)O[C@@H]7CO)O[C@@H]6CO)O[C@@H]5CO)O[C@@H]4CO)O[C@@H]3CO [α-cyclodextrin] | 129.5 ± 0.7 mg/mL (≈ 133 mM)
2 |  | OC[C@H]1O[C@@H]2O[C@H]3[C@H](O)[C@@H](O)[C@@H](O[C@H]4[C@H](O)[C@@H](O)[C@@H](O[C@H]5[C@H](O)[C@@H](O)[C@@H](O[C@H]6[C@H](O)[C@@H](O)[C@@H](O[C@H]7[C@H](O)[C@@H](O)[C@@H](O[C@H]8[C@H](O)[C@@H](O)[C@@H](O[C@H]9[C@H](O)[C@@H](O)[C@@H](O[C@H]1[C@H](O)[C@H]2O)O[C@@H]9CO)O[C@@H]8CO)O[C@@H]7CO)O[C@@H]6CO)O[C@@H]5CO)O[C@@H]4CO)O[C@@H]3CO [γ-cyclodextrin] | 249.2 ± 0.2 mg/mL (≈ 192 mM)
3 | at least 1 year | DL-Tartaric acid | 
